Experimental data published in publication PMC9837035 (Nature Communications, 2023).
Like-named read-outs stand apart in the source and are kept apart here.

Legend:
H3K9me2 in CD34+ cells = test: Western blotting of H3K9me2 in CD34+ cells; assay type: cell-based, human
Method: HUDEP-2 cells and HiDEP-1 cells were grown in Stemline II Hematopoietic Stem Cell Expansion Medium (Sigma) supplemented with 50 ng/mL recombinant stem cell factor (SCF; R&D systems), 3 IU/mL recombinant erythropoietin (EPO; Kyowa Kirin), 1 μM dexamethasone (Dex; Sigma), and 1 μg/mL doxycycline (Sigma). A total of 1 × 10^5 human CD34^+ progenitor cells derived from bone marrow or peripheral blood (Lonza) were cultured on 35-mm dishes (BD Falcon) in StemSpan SFEMII medium with 50 ng/mL SCF, 5 IU/mL EPO, and 10 ng /mL interleukin 3 (IL-3; R&D systems). The medium was changed on day 4 to SCF, EPO, and 1 μM Dex, and the cells were transferred to 60-mm dishes (BD Falcon). Seven days after the onset of differentiation, cells were counted and 1 × 10^6 cells were re-plated on 100-mm dishes (BD Falcon) with SCF, EPO, and Dex. The rat myoblast cell line H9c2, HEK293T, and PLAT-E cells were maintained in Dulbecco’s modified Eagle’s medium (Thermo Fisher Scientific) supplemented with 10% heat-inactivated fetal bovine serum (FBS) and penicillin/streptomycin. All cells were cultured at 37 °C under 5% CO2.
Preparation of cell lysates and western blotting were performed as described previously. […] The immune complexes were detected with the Immobilon Western Chemiluminescent HRP Substrate (Millipore). Luminescence was analyzed on a FUSION SOLO S (Vilber). […]

PRMT7 = PRMT7 (Homo sapiens, UniProt Q9NVM4); test: Radioisotope-based methyltransferase assay (selectivity)
[1] = system: H3K27me3 in HUDEP-2 cells; test: Western blotting of H3K27me3; assay type: cell-based, human; conditions: peer review file
Method: Preparation of cell lysates and western blotting were performed as described previously. Protein from cells lysates in lysis buffer (50 mM Tris-HCl (pH 7.5), 150 mM NaCl, 5 mM EDTA, 0.1% NP-40, 1 mM dithiothreitol) were separated by sodium dodecyl sulfate–polyacrylamide gel electrophoresis (SDS-PAGE) and transferred to a polyvinylidene difluoride (PVDF) membrane (Millipore) by electroblotting. The membranes incubated with primary antibodies overnight at 4 °C and secondary antibodies for 1 h at room temperature. The immune complexes were detected with the Immobilon Western Chemiluminescent HRP Substrate (Millipore). Luminescence was analyzed on a FUSION SOLO S (Vilber). Western blot bands were visualized using Evolution Capt software (M&S Instruments Inc.). Primary antibodies used were anti-G9a (1:1000, CST, #3306), anti–α-tubulin (1:5000, Abcam, ab18251), anti-H3K9me2 (1:3000, Abcam, ab1220), anti-H3 (1:5000, Abcam, ab1791), anti-H3K27me3 (1:3000, Sigma, 07-449), anti-GLP (1:1000, CST, #35005), anti-FLAG (100 ng/ml, Fujifilm, 01422383), anti-His (1:5000, MBL, PM032), anti-BCL11A (1:1000, abcam, ab19487), anti-ZBTB7A (1:1000, CST, #50565), anti-CHD3 (1:1000, Novus Biologicals, NB100-60412), and anti-CHD4 (1:1000, abcam, ab240640). Uncropped scans of all of the blots are available in Source Data file.

EZH1 [2] = biological target: T1, EZH1 (Homo sapiens, UniProt Q92800); test: biochemical
DNMT1 = DNMT1 (Homo sapiens, UniProt P26358); test: biochemical
[3] = system: α-, β-, εy-, and βh1-globin mRNA in peripheral blood; test: Globin mRNA levels in peripheral blood of treated mice; assay type: in vivo
Method: Total cellular RNA was prepared using the Tissue Total RNA Mini Kit (FAVORGEN), and cDNA was synthesized using ReverTra Ace Master Mix (TOYOBO). Expression of target genes was analyzed using THUNDERBIRD SYBR qPCR Mix (TOYOBO) on a CFX Connect Real Time System (Bio-Rad). The qPCR data were acquired on CFX Maestro (Bio-Rad). Primers are listed in Supplementary Table 10. GAPDH was used as a reference. Primers were purchased from INTEGRATED DNA TECHNOLOGIES or FASMAC.
C57BL/6 mice (6–8 weeks old, female, six mice/group) were purchased from Tokyo Laboratory Animals Science. The mice were fed a standard laboratory diet and housed in a temperature-controlled room under specific pathogen-free conditions. A combination anesthetic was prepared with 0.3 mg/kg medetomidine, 4.0 mg/kg midazolam, and 5.0 mg/kg butorphanol.
The dosing solution contained 15% DMSO, 17.5% Cremophor EL, 8.75% EtOH, 8.75% HCO-40, and 50% PBS. Blood samples were collected once a week by Retro Orbital Sampling (75 μL Calibrated Micropipette; Drummond Scientific Company) during isoflurane anesthesia. Blood RNA was extracted using NucleoSpin RNA Blood (Takara Bio Inc.). The weight of each mouse was measured every 3 or 4 days.

EZH1 [4] = biological target: T1, EZH1; test: Radioisotope-based methyltransferase assay (selectivity)
PRMT4 = biological target: T2, PRMT4 (Homo sapiens, UniProt Q86X55); test: as above; assay type: biochemical
T2 construct: purchased Reaction Biology

NSD2 (E1099K) = NSD2 (E1099K) (Homo sapiens, UniProt O96028, E1099K)
PRDM9 = biological target: T3, PRDM9 (Homo sapiens, UniProt Q9NQV7); test: Radioisotope-based methyltransferase assay (selectivity); assay type: biochemical; conditions: read-out: IC50
T3 construct: purchased Reaction Biology

PRMT5/MEP50 = PRMT5/MEP50 (Homo sapiens, UniProt O14744); test: biochemical
EZH2 (Y641F) = EZH2 (Y641F) (Homo sapiens, UniProt Q15910, Y641F); test: biochemical

T3 sequence (Q9NQV7 whole entry): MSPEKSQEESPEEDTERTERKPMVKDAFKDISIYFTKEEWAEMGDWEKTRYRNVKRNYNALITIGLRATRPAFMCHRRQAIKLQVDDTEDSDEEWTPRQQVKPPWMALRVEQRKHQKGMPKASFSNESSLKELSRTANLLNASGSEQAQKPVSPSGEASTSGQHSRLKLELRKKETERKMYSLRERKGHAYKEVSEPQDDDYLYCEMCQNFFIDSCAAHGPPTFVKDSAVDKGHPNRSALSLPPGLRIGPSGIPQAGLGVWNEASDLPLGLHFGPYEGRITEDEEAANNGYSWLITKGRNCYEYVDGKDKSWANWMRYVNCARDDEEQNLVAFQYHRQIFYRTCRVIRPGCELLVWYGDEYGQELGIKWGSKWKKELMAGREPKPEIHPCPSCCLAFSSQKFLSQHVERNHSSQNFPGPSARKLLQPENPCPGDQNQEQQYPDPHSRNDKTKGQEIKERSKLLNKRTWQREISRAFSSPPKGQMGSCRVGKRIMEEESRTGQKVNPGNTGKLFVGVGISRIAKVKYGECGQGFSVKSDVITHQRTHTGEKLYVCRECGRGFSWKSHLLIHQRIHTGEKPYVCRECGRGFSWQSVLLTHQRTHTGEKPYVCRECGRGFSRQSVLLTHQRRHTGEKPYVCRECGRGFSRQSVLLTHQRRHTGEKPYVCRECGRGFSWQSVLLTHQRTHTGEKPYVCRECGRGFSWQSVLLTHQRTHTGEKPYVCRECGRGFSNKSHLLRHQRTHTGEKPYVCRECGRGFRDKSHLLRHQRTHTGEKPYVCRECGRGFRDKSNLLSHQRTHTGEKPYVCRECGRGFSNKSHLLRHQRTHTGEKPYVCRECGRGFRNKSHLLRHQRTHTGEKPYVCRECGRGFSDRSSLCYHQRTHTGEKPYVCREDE
T1 sequence (Q92800 whole entry): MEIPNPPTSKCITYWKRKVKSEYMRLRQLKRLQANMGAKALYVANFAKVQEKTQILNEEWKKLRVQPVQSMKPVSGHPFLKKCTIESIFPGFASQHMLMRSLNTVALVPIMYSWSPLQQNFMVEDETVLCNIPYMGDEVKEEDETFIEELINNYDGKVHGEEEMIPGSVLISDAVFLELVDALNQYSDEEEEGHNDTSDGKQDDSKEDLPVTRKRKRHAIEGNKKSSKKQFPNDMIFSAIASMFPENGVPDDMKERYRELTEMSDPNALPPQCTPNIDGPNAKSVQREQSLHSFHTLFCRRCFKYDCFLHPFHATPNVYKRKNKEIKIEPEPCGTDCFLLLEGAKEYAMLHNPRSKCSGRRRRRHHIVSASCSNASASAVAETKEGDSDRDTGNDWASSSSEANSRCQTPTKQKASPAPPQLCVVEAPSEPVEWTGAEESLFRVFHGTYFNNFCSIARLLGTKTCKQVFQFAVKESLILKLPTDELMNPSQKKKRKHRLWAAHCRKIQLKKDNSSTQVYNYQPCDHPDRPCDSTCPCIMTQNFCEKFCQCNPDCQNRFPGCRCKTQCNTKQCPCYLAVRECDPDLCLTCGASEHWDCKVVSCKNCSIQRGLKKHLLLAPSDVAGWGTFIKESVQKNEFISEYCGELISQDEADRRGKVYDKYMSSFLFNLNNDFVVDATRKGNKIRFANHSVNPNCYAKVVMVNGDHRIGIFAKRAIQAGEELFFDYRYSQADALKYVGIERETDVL
T1 sequence (O75530 whole entry partner): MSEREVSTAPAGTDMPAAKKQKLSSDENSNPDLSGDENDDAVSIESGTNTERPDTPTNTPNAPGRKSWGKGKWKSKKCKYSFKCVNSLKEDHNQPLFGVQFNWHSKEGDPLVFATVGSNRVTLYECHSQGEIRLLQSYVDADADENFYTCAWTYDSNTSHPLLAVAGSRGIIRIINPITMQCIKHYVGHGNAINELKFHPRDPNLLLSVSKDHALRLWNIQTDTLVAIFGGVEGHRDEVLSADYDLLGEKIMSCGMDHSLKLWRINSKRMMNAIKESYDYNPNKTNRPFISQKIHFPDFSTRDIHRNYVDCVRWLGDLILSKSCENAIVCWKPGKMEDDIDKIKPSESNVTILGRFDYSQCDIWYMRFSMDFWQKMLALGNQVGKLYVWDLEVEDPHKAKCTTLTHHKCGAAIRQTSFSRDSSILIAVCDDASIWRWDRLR
T1 sequence (Q15022 whole entry partner): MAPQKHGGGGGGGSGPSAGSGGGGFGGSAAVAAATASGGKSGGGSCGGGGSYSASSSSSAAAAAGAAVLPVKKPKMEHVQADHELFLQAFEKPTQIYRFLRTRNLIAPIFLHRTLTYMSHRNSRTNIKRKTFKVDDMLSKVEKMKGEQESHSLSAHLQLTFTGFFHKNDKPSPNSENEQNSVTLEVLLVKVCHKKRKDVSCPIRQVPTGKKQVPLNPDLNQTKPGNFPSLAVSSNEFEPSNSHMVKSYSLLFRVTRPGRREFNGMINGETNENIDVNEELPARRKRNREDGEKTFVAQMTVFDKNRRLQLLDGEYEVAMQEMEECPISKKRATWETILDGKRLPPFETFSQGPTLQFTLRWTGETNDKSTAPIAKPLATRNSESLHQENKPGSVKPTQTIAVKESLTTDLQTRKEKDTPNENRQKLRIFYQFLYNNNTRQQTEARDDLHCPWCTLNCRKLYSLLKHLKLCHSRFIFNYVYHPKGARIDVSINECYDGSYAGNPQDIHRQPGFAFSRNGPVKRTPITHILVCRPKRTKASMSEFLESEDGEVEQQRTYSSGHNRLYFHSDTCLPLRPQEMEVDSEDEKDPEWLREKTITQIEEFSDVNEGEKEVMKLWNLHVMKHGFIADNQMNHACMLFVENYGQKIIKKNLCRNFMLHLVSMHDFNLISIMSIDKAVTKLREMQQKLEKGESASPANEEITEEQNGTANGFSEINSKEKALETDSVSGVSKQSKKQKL
T1 sequence (Q09028 whole entry partner): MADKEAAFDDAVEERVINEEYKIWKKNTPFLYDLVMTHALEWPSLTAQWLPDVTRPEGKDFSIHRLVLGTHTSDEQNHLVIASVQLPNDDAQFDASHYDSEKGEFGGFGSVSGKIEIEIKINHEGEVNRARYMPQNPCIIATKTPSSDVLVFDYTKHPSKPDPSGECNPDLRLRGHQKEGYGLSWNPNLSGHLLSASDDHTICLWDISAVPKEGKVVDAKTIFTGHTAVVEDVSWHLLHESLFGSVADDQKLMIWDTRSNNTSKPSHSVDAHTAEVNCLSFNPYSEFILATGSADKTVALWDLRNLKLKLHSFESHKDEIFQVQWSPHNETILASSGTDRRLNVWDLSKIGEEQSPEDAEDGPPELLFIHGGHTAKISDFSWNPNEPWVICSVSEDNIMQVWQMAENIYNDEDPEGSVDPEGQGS
T1 sequence (Q6ZN18 whole entry partner): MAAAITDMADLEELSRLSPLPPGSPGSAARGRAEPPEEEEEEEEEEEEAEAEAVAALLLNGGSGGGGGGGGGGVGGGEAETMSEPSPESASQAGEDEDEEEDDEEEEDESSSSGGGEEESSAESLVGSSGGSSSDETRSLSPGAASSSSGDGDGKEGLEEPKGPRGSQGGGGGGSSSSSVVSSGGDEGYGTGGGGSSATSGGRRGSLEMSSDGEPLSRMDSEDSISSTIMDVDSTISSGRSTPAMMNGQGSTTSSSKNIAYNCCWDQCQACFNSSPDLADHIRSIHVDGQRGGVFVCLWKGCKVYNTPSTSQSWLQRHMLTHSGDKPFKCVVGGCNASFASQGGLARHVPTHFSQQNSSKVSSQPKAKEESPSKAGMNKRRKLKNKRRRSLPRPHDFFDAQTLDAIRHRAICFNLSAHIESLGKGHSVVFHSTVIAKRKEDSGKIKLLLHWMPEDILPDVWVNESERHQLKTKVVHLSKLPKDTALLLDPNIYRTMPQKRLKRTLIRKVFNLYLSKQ
T2 sequence (Q86X55 whole entry): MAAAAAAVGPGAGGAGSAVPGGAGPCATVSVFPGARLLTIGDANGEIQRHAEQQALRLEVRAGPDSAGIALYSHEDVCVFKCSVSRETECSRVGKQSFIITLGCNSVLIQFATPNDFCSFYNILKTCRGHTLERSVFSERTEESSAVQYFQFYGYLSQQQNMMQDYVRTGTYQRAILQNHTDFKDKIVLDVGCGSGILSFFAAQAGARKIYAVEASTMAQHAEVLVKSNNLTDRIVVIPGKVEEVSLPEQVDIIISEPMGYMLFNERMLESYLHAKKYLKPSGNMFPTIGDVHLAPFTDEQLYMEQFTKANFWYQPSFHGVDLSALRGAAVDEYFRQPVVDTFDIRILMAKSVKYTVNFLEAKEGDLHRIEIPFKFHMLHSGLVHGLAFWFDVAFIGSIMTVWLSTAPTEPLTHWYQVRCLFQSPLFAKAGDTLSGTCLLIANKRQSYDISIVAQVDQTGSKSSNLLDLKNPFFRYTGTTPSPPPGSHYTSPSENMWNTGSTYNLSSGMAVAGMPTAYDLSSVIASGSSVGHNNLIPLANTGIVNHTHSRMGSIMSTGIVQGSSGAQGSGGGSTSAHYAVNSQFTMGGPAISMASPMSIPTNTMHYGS

| Structure (SMILES) | H3K9me2 level (H3K9me2 in CD34+ cells) | IC50 (PRMT7) [µM] | H3K27me3 ([1]; 0.1 µM) | H3K27me3 [1] | IC50 (EZH1 [2]) [µM] | IC50 (DNMT1) [µM] | mouse embryonic εy-globin [3] | IC50 (EZH1 [4]) [µM] | IC50 (PRMT4; PRMT4, 1 μM SAM) [µM] | IC50 (PRMT4; PRMT4, RK-701 in duplicate) [µM] | IC50 (NSD2 (E1099K)) [µM] | IC50 (PRDM9; PRDM9, 1 μM SAM) [µM] | IC50 (PRDM9; PRDM9, RK-701 in duplicate) [µM] | IC50 (PRMT5/MEP50) [µM] | IC50 (EZH2 (Y641F)) [µM] |
| --- | --- | --- | --- | --- | --- | --- | --- | --- | --- | --- | --- | --- | --- | --- | --- |
| NC(=O)NO [Hydroxyurea, hydroxyurea] | did not affect the H3K9me2 level |  |  |  |  |  |  |  |  |  |  |  |  |  |  |
| Cc1c(C(=O)NC(CCC2CC2)C(=O)Nc2ccc(C#N)cc2)[nH]c2c1C(=O)CC(C)(C)C2 (stereo not drawn) [RK-701] |  | > 100 | no effect on H3K27me3 | slightly decrease H3K27me3 only at high | > 100 | > 100 | selectively increased | > 100 | > 100 | > 100 | > 100 | > 100 | > 100 | > 100 | > 100 |
